Data taken from US20060063711A1, “Use of sglt homolog” (priority 2002, published 2006).

Experiments:
human SGLT1 [1] = molecular target: T1, human SGLT1 (Homo sapiens, UniProt P13866); test: kinetic analysis of glucose uptake in human SGLT1-transfected COS7 cells
T1 sequence (P13866 1-664): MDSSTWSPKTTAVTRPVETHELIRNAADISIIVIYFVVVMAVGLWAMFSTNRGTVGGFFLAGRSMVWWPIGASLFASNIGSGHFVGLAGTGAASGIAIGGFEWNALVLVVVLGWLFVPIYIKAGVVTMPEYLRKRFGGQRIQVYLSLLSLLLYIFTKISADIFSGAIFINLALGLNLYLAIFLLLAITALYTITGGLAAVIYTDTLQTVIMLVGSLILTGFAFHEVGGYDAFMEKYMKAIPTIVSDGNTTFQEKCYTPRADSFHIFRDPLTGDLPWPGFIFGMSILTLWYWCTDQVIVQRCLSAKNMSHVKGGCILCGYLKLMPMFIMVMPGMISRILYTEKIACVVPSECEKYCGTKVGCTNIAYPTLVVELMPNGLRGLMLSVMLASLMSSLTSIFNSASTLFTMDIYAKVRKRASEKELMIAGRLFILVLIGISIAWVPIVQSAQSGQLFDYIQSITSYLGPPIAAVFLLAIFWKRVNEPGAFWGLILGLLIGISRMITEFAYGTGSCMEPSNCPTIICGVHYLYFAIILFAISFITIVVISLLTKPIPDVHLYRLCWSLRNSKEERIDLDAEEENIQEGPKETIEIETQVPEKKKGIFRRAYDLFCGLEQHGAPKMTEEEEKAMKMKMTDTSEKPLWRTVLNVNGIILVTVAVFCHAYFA
Method: (§2) The human SGLT homolog or the human SGLT1-transfected COS7 cells were prepared and subjected to kinetic analysis of glucose uptake, respectively. […] The cells were plated on 100 μl of DMEM medium containing 10% FBS charged in a 96-well plate in a cell density of 3×10^4 cells/well, followed by culturing overnight at 37° C. […] Then 90 μl each of the thus prepared mixtures was added per well. In addition, 10 μl each of α-methyl glucose in a final concentration of 1 mM, which contained 0.02 μCi of [^14C]-α-methyl glucose (Amersham Pharmacia Biotech, Inc.), was added per well to carry out a glucose uptake reaction for an hour. After washing 3 times with 200 μl of chilled PBS, 100 μl each of liquid scintillator was added per well and the radioactivity of ^14C taken up into the cells was counted with a scintillation counter to determine Km and Vmax in the glucose uptake.

human SGLT homolog [2] = molecular target: T2, human SGLT homolog (Homo sapiens, UniProt Q2M3M2, I269M); test: kinetic analysis of glucose uptake in human SGLT homolog-transfected COS7 cells
T2 sequence (Q2M3M2 8-681 I269M limits assumed): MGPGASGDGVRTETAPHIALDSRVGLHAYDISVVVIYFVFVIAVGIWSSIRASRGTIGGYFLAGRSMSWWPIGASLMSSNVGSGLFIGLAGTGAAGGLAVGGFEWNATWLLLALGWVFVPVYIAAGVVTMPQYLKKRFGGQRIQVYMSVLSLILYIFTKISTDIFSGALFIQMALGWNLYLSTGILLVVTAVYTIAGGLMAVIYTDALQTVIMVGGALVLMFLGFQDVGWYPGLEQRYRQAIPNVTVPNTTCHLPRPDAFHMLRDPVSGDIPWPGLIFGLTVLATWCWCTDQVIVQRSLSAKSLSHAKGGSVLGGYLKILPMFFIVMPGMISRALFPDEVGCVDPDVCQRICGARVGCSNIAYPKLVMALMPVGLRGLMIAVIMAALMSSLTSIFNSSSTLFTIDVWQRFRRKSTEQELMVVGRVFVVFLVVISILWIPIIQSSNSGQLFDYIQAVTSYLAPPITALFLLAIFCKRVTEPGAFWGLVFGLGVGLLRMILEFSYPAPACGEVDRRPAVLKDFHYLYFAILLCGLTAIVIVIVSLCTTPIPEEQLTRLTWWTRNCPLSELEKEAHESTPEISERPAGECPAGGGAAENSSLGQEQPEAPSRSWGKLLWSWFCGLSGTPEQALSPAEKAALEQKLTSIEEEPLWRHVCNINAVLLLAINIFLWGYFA
Method: as §2

human SGLT1 [3] = molecular target: T1, human SGLT1; test: substrate specificity, α-methyl glucose uptake test in human SGLT1-transfected COS7 cells; assay type: cell-based; parameters: expressed in transfected cells; host or cells: COS7 cells; conditions: sugar added at 0, 1 and 10 mM
Method: (§1) The human SGLT homolog or human SGLT1-transfected COS7 cells were prepared and the respective substrate specificities were examined. The α-methyl glucose uptake test was carried out in accordance with the procedures described in Am. J. Physiol., 270: G833-G843, 1996 and J. Clin. Invest., 93: 397-404, 1994. The cells were plated on 100 μl of DMEM medium containing 10% FBS charged in a 96-well plate in a cell density of 3×10^4 cells/well, followed by culturing overnight at 37° C. Each well was washed 3 times with a reaction buffer solution supplemented with 125 mM N-Methyl-D-Glucamine (1.2 mM KH2PO4, 2.5 mM CaCl2, 1.2 mM MgSO4, 4 mM Glutamine, 10 mM HEPES (pH 7.2), 0.1 mg/ml BSA) and further cultured for an hour in the same buffer solution to remove the glucose remained in the cells. Next, 150 mM NaCl was added to the reaction buffer solution above and glucose or galactose was added to the mixture in 0, 1 and 10 mM, respectively. Then 90 μl each of the thus prepared mixtures was added per well. […] After washing 3 times with 200 μl of chilled PBS, 100 μl each of liquid scintillator was added per well and the radioactivity of ^14C taken up into the cells was counted with a scintillation counter.

human SGLT homolog [4] = molecular target: T2, human SGLT homolog; test: substrate specificity, α-methyl glucose uptake test in human SGLT homolog-transfected COS7 cells; assay type: cell-based; parameters: expressed in transfected cells; host or cells: COS7 cells; conditions: sugar added at 0, 1 and 10 mM
Method: as §1

[5] = read-out: Km in the glucose uptake, α-methyl glucose 0 to 20 mM, 150 mM NaCl
[6] = α-methyl glucose 0 to 20 mM, 150 mM NaCl

SMILES	Km (human SGLT1 [1]; [5])	Vmax in the glucose uptake (human SGLT1 [1]; [6])	Km (human SGLT homolog [2]; [5])	Vmax in the glucose uptake (human SGLT homolog [2]; [6])	affinity (competition of α-methyl glucose uptake) (human SGLT1 [3])	affinity (competition of α-methyl glucose uptake) (human SGLT homolog [4])
COC1OC(CO)C(O)C(O)C1O (stereo not drawn) [α-methyl glucose]	1.8 mM	3.9 nmol/hour/106 cells	7.9 mM	8.0 nmol/hour/106 cells		
O=C[C@H](O)[C@@H](O)[C@@H](O)[C@H](O)CO [galactose]					had affinity	little affinity
